# Assay results taken from the supplement of paper PMC6045584.
# ± gives the standard deviation of the averaged measurements.
# Compound: COCC[n+]1c2c(n(Cc3cnccn3)c1C)C(=O)c1ccccc1C2=O [YM155]
# Assay: surviving fraction relative to DMSO-only wells; higher = less growth inhibition
# Settings: 1000 nM; exposure time: 5 days
# How it was run: (§1)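 Log-phase tumour cell lines were seeded at 250–500 cells per well in 384-well plates. After 24 hours they were exposed continuously for five days to inhibitors at 0.5, 1, 5, 10, 50, 100, 500 and 1000 nM. Viability was read by CellTiter-Glo luminescence after 10 minutes at room temperature, and surviving fraction is luminescence normalised to the median of DMSO-only wells. Each line was screened three times and kept only if replicate Pearson r >0.7 and median Z' >0.3.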
row,Test System,surviving fraction
1,SCC003 HEADNECK,0.025 ± 0.0017

# Compound: COc1cc2ncnc(Nc3ccc(F)c(Cl)c3)c2cc1OCCCN1CCOCC1 [GEFITINIB]
# Assay: as above
# Settings: 0.5 nM; exposure time: 5 days
# How it was run: as §1
row,Test System,surviving fraction
1,HS578T BREAST,0.972 ± 0.039
2,JURKAT HAEMATOPOIETIC AND LYMPHOID TISSUE,1.07 ± 0.016
3,MDAMB453 BREAST,1.09 ± 0.045
4,S68 BREAST,0.936 ± 0.095
5,SCC003 HEADNECK,1.02 ± 0.057

# Same assay, conditions: 1 nM; exposure time: 5 days
row,Test System,surviving fraction
1,HS578T BREAST,0.906 ± 0.078
2,JURKAT HAEMATOPOIETIC AND LYMPHOID TISSUE,1.09 ± 0.041
3,MDAMB453 BREAST,1.07 ± 0.078
4,S68 BREAST,0.744 ± 0.17
5,SCC003 HEADNECK,1.01 ± 0.056

# Same assay, conditions: 5 nM; exposure time: 5 days
row,Test System,surviving fraction
1,HS578T BREAST,0.965 ± 0.095
2,JURKAT HAEMATOPOIETIC AND LYMPHOID TISSUE,1.062 ± 0.0078
3,MDAMB453 BREAST,1.19 ± 0.078
4,S68 BREAST,1.11 ± 0.34
5,SCC003 HEADNECK,1.1 ± 0.027

# Same assay, conditions: 10 nM; exposure time: 5 days
row,Test System,surviving fraction
1,HS578T BREAST,0.878 ± 0.12
2,JURKAT HAEMATOPOIETIC AND LYMPHOID TISSUE,1.07 ± 0.021
3,MDAMB453 BREAST,1.1 ± 0.024
4,S68 BREAST,1.09 ± 0.069
5,SCC003 HEADNECK,0.995 ± 0.11

# Same assay, conditions: 50 nM; exposure time: 5 days
row,Test System,surviving fraction
1,HS578T BREAST,0.996 ± 0.13
2,JURKAT HAEMATOPOIETIC AND LYMPHOID TISSUE,1.05 ± 0.028
3,MDAMB453 BREAST,1.14 ± 0.053
4,S68 BREAST,1.11 ± 0.23
5,SCC003 HEADNECK,0.945 ± 0.026

# Same assay, conditions: 100 nM; exposure time: 5 days
row,Test System,surviving fraction
1,HS578T BREAST,0.819 ± 0.075
2,JURKAT HAEMATOPOIETIC AND LYMPHOID TISSUE,1.03 ± 0.025
3,MDAMB453 BREAST,1.13 ± 0.087
4,S68 BREAST,0.762 ± 0.093
5,SCC003 HEADNECK,0.857 ± 0.035

# Same assay, conditions: 500 nM; exposure time: 5 days
row,Test System,surviving fraction
1,HS578T BREAST,1.07 ± 0.1
2,JURKAT HAEMATOPOIETIC AND LYMPHOID TISSUE,1.02 ± 0.018
3,MDAMB453 BREAST,1.06 ± 0.05
4,S68 BREAST,0.728 ± 0.1
5,SCC003 HEADNECK,0.54 ± 0.043

# Same assay, conditions: 1000 nM; exposure time: 5 days
row,Test System,surviving fraction
1,HS578T BREAST,0.899 ± 0.23
2,JURKAT HAEMATOPOIETIC AND LYMPHOID TISSUE,1.016 ± 0.0051
3,MDAMB453 BREAST,1.04 ± 0.039
4,S68 BREAST,0.687 ± 0.22
5,SCC003 HEADNECK,0.47 ± 0.029

# Compound: C[C@]1(O)C[C@@H](c2nc(-c3ccc4ccc(-c5ccccc5)nc4c3)c3c(N)nccn32)C1 [OSI-906]
# Assay: as above
# Settings: 0.5 nM; exposure time: 5 days
# How it was run: as §1
row,Test System,surviving fraction
1,HS578T BREAST,0.846 ± 0.12
2,JURKAT HAEMATOPOIETIC AND LYMPHOID TISSUE,0.966 ± 0.033
3,MDAMB453 BREAST,1.03 ± 0.03
4,S68 BREAST,0.611 ± 0.24
5,SCC003 HEADNECK,0.796 ± 0.018

# Same assay, conditions: 1 nM; exposure time: 5 days
row,Test System,surviving fraction
1,HS578T BREAST,0.968 ± 0.16
2,JURKAT HAEMATOPOIETIC AND LYMPHOID TISSUE,0.971 ± 0.013
3,MDAMB453 BREAST,1.03 ± 0.016
4,S68 BREAST,0.727 ± 0.17
5,SCC003 HEADNECK,0.865 ± 0.028

# Same assay, conditions: 5 nM; exposure time: 5 days
row,Test System,surviving fraction
1,HS578T BREAST,0.865 ± 0.12
2,JURKAT HAEMATOPOIETIC AND LYMPHOID TISSUE,0.998 ± 0.032
3,MDAMB453 BREAST,1.077 ± 0.0087
4,S68 BREAST,0.797 ± 0.27
5,SCC003 HEADNECK,0.88 ± 0.099

# Same assay, conditions: 10 nM; exposure time: 5 days
row,Test System,surviving fraction
1,HS578T BREAST,0.846 ± 0.049
2,JURKAT HAEMATOPOIETIC AND LYMPHOID TISSUE,0.9753 ± 0.009
3,MDAMB453 BREAST,1.06 ± 0.021
4,S68 BREAST,0.721 ± 0.37
5,SCC003 HEADNECK,0.87 ± 0.011

# Same assay, conditions: 50 nM; exposure time: 5 days
row,Test System,surviving fraction
1,HS578T BREAST,1.09 ± 0.13
2,JURKAT HAEMATOPOIETIC AND LYMPHOID TISSUE,0.98 ± 0.067
3,MDAMB453 BREAST,1.06 ± 0.051
4,S68 BREAST,1.19 ± 0.28
5,SCC003 HEADNECK,1.02 ± 0.022

# Same assay, conditions: 100 nM; exposure time: 5 days
row,Test System,surviving fraction
1,HS578T BREAST,0.931 ± 0.19
2,JURKAT HAEMATOPOIETIC AND LYMPHOID TISSUE,0.965 ± 0.039
3,MDAMB453 BREAST,1.04 ± 0.014
4,S68 BREAST,1.06 ± 0.21
5,SCC003 HEADNECK,1.04 ± 0.013

# Same assay, conditions: 500 nM; exposure time: 5 days
row,Test System,surviving fraction
1,HS578T BREAST,1.07 ± 0.073
2,JURKAT HAEMATOPOIETIC AND LYMPHOID TISSUE,1.02 ± 0.012
3,MDAMB453 BREAST,1.02 ± 0.042
4,S68 BREAST,0.828 ± 0.19
5,SCC003 HEADNECK,0.976 ± 0.04

# Same assay, conditions: 1000 nM; exposure time: 5 days
row,Test System,surviving fraction
1,HS578T BREAST,1.15 ± 0.18
2,JURKAT HAEMATOPOIETIC AND LYMPHOID TISSUE,0.99 ± 0.021
3,MDAMB453 BREAST,0.98 ± 0.035
4,S68 BREAST,0.756 ± 0.05
5,SCC003 HEADNECK,0.845 ± 0.04

# Compound: Cc1ccc(-c2cc(C(F)(F)F)nn2-c2ccc(S(N)(=O)=O)cc2)cc1 [CELECOXIB]
# Assay: as above
# Settings: 0.5 nM; exposure time: 5 days
# How it was run: as §1
row,Test System,surviving fraction
1,HS578T BREAST,0.9 ± 0.013
2,JURKAT HAEMATOPOIETIC AND LYMPHOID TISSUE,1.03 ± 0.036
3,MDAMB453 BREAST,1.07 ± 0.076
4,S68 BREAST,1.18 ± 0.21
5,SCC003 HEADNECK,1.07 ± 0.033

# Same assay, conditions: 1 nM; exposure time: 5 days
row,Test System,surviving fraction
1,HS578T BREAST,0.892 ± 0.26
2,JURKAT HAEMATOPOIETIC AND LYMPHOID TISSUE,1.05 ± 0.032
3,MDAMB453 BREAST,1.1 ± 0.079
4,S68 BREAST,1.07 ± 0.24
5,SCC003 HEADNECK,1.1 ± 0.049

# Same assay, conditions: 5 nM; exposure time: 5 days
row,Test System,surviving fraction
1,HS578T BREAST,0.942 ± 0.14
2,JURKAT HAEMATOPOIETIC AND LYMPHOID TISSUE,1.03 ± 0.017
3,MDAMB453 BREAST,1.09 ± 0.072
4,S68 BREAST,1.26 ± 0.17
5,SCC003 HEADNECK,1.05 ± 0.034

# Same assay, conditions: 10 nM; exposure time: 5 days
row,Test System,surviving fraction
1,HS578T BREAST,0.942 ± 0.093
2,JURKAT HAEMATOPOIETIC AND LYMPHOID TISSUE,1.05 ± 0.029
3,MDAMB453 BREAST,1.18 ± 0.1
4,S68 BREAST,1.19 ± 0.15
